Measured values from patent publication US20240316084A1, “COMPOSITIONS FOR USE IN PROMOTING ACCELERATED BUTYRATE PRODUCTION IN YOUNG CHILDREN” (SOCIETE DES PRODUITS NESTLE S.A., priority 2020, published 2024).

What was measured:
Assay type in all cases: cell-based, human
[1] = test system: gut microbiota of an infant; experiment: long term SHIME experiment with infant fecal samples (Example 1); settings: for Actinobacteria population (Abundance), colon model / butyrate concentration in colon model: Infant; for increase of butyrate production: infant gut microbiota, three weeks of treatment
Experimental: (§1) The model of the human gastrointestinal tract used was the SHIME®. The first two reactors are of the fill-and-draw principle to simulate different steps in food uptake and digestion, with peristaltic pumps adding a defined amount of SHIME® feed (140 mL 3×/day) and pancreatic and bile liquid (60 mL 3×/day), respectively to the stomach and small intestine compartment and emptying the respective reactors after specified intervals. The last three compartments simulate the large intestine. The SHIME® experiment for this study consisted of three stages: • Stabilization period: After inoculation of the colon reactors with a fresh faecal sample, a two-week stabilization period allowed the microbial community to differentiate in the different reactors depending on the local environmental conditions. During this period a basic nutritional matrix was provided to the SHIME to support the optimum diversity of the gut microbiota originally present in the faecal inoculum. • Control period: During this two-week reference period, the standard SHIME® nutrient matrix was further added to the model for a period of 14 days. Analysis of samples in this period allows to determine the baseline microbial community composition and activity in the different reactors, which will be used as a reference for evaluating the treatment effects. • Treatment period: During this three-week period, the SHIME® reactor was operated under nominal conditions, but with a diet supplemented with the 2′FL product on top of the normal composition. The diet supplemented with 2′FL was administered 3 times a day at a concentration of 1% SCFA Production were Measured Three Times Per Week Throughout the Experiment

[2] = test system: gut microbiota of a toddler; experiment: long term SHIME experiment with toddler samples (Example 1); settings: for Actinobacteria population (Abundance), colon model / butyrate concentration in colon model: Toddler; for increase of butyrate production: young child, three weeks of treatment
Experimental: as §1

gut microbes = experiment: gas production: samples from the proximal colon vessel of the SHIME treated with lactose or 2′-FL in a penicillin tube; settings: for gas production between 6-24 h (rank): 6-24 h timeframe, Lactose versus 2′FL; for gas production at 48 h (gaz pressure): 48 h incubation
Experimental: Gas production is a measure of fermentative activity by gut microbes. […] Gas production is not monitored in the long-term SHIME® model, given its regular flushing with N2 (to ensure anaerobiosis). Therefore, gas production was evaluated by collecting samples from the proximal colon vessel of the SHIME and treating them with lactose or 2′-FL in a penicillin tube. It was then incubated for 24 h and 48 h. The gas formation was assessed in those tubes.

[3] = test system: gut microbiota of a toddler; experiment: long term SHIME experiment, comparison of different HMOs blends in toddler (Example 2)
Experimental: The model of the human gastrointestinal tract used was the SHIM ED. The first two reactors are of the fill-and-draw principle to simulate different steps in food uptake and digestion, with peristaltic pumps adding a defined amount of SHIME feed (140 mL 3×/day) and pancreatic and bile liquid (60 mL 3×/day), respectively to the stomach and small intestine compartment and emptying the respective reactors after specified intervals. The last three compartments simulate the large intestine. The SHIME® experiment for this study consisted of three stages: • Stabilization period: After inoculation of the colon reactors with a fresh faecal sample, a two-week stabilization period allowed the microbial community to differentiate in the different reactors depending on the local environmental conditions. During this period a basic nutritional matrix was provided to the SHIME to support the optimum diversity of the gut microbiota originally present in the faecal inoculum. • Control period: During this two-week reference period, the standard SHIME nutrient matrix was further added to the model for a period of 14 days. Analysis of samples in this period allows to determine the baseline microbial community composition and activity in the different reactors, which will be used as a reference for evaluating the treatment effects. • Treatment period: During this three-week period, the SHIME reactor was operated under nominal conditions, but with a diet supplemented with the 2′FL product on top of the normal composition or with the mixtures HMO-3 or HMO-5. The diet supplemented with HMOs administered 3 times a day at a concentration of 1%. In this experiment, also branched SCFA (b-SCFA=sum of isobutyrate, isovalerate and isocaproate) were measured which result from protein degradation and reflect proteolytic activity of the gut microbiota. A significant alterations in those metabolites was shown in fecal extracts from patients with colon cancer compared to controls Ref: Le Gall 2018 (Oncotarget, 2018, Vol. 9, (No. 70), pp: 33278-33289)

[4] = treatment week 1, diet with 1% 2′FL 3 times a day
[5] = treatment week 2, diet with 1% 2′FL 3 times a day
[6] = treatment week 3, diet with 1% 2′FL 3 times a day
[7] = distal colon, treatment week 3, diet with 1% HMOs 3 times a day

2′-fucosyllactose [2′-FL]
Actinobacteria population (Abundance), colon model ([1]; treatment week 1): 31.8% | butyrate concentration in colon model [1, 4]: 13.75 mM/m1 | Actinobacteria population (Abundance), colon model ([1]; treatment week 2): 46.3% | butyrate concentration in colon model [1, 5]: 15.85 mM/m1 | Actinobacteria population (Abundance), colon model ([1]; treatment week 3): 43.5% | butyrate concentration in colon model [1, 6]: 20.3 mM/m1 | increase in butyrate, onset of effect ([1]; infant fecal samples, over the weeks of treatment): more gradual | increase of butyrate production ([1]; Distal Colon): 54% | increase of butyrate production ([1]; Proximal Colon): 81% | Actinobacteria population (Abundance), colon model ([2]; treatment week 1): 49.9% | butyrate concentration in colon model [2, 4]: 28.1 mM/m1 | Actinobacteria population (Abundance), colon model ([2]; treatment week 2): 53% | butyrate concentration in colon model [2, 5]: 30.2 mM/m1 | Actinobacteria population (Abundance), colon model ([2]; treatment week 3): 52.2% | butyrate concentration in colon model [2, 6]: 30.3 mM/m1 | butyrate concentration in the colon, onset of effect ([2]; toddler samples): immediate increase | butyrate concentrations, course through the treatment period ([2]; toddler samples): relatively stable | effect on Actinobacteria phylum mainly composed of Bifidobacteria ([2]; toddlers): immediate effect | increase of butyrate production ([2]; Distal Colon): 156% | increase of butyrate production ([2]; Proximal Colon): 192% | gas production between 6-24 h (rank) (gut microbes): lowest | gas production at 48 h (gaz pressure) (gut microbes; Infant): 31.8 kPA | gas production at 48 h (gaz pressure) (gut microbes; Toddler): 49.9 kPA | gas production over 48 hours as compared to Lactose (gut microbes; both toddler and infant, 48 hours): less gas production | increase in gas production corresponding to accelerated butyrate production (gut microbes; toddlers): no corresponding increase in gas production | butyrate production in the colon, onset of effect [3]: immediate increase | BCFA production in toddler [3, 7]: 3.1 mM | butyrate production in toddler [3, 7]: 29.5 mM

OC[C@H]1O[C@@H](O[C@H]2[C@H](O)[C@@H](O)C(O)O[C@@H]2CO)[C@H](O)[C@@H](O)[C@H]1O (stereo partly shown) [Lactose, reference compound]
gas production between 6-24 h (rank) (gut microbes): highest | gas production at 48 h (gaz pressure) (gut microbes; Infant): 4.7 kPA | gas production at 48 h (gaz pressure) (gut microbes; Toddler): 12.8 kPA
